# According to US8367838B2, “Amines or amino alcohols as GLYT1 inhibitors” (Hoffmann-La Roche Inc., priority 2009, dated 2013):
# Structures can show the parent of a compound that is named as a salt.
# Target: T1, mGlyT-1b (Mus musculus, UniProt P28571)
# T1 construct: host or cells: Flp-in-CHO
# T1 sequence (P28571 1-651 isoform P28571-2): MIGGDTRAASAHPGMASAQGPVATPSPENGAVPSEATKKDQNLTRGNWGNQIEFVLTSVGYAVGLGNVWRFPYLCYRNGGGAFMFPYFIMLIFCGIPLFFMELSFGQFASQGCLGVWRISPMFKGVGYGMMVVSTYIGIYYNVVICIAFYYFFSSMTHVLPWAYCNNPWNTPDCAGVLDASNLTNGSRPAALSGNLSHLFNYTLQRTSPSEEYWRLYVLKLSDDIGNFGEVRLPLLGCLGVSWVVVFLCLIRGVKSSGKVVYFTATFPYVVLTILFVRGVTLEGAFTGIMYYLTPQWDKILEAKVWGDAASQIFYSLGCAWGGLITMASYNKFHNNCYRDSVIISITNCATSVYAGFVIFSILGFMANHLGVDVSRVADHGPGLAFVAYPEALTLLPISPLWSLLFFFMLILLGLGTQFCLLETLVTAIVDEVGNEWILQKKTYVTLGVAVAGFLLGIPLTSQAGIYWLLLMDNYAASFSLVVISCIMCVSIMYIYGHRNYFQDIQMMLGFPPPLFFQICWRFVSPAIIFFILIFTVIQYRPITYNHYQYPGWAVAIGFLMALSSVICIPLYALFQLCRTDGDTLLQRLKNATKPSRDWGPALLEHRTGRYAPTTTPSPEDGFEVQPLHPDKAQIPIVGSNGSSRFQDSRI
# Experiment: Glycine uptake inhibition assay (mGlyT-1b), [3H]-glycine uptake in transfected Flp-in-CHO cells
# Type: cell-based
# Conditions: Flp-in-CHO cells transfected with mGlyT-1b cDNA; [3H]-glycine 60 nM and 25 μM non-radioactive glycine; 20 min preincubation at 22° C.; read-out: IC50 (μM) at GlyT-1; Ic50 (hglyt1b)
# Protocol: Nutrient mixture F-12 (Gibco Life-technologies), fetal bovine serum (FBS) 5%, (Gibco life technologies), Penicillin/Streptomycin 1% (Gibco life technologies), Hygromycin 0.6 mg/ml (Gibco life technologies), Glutamine 1 mM Gibco life technologies).
# 150 mM NaCl, 10 mM Hepes-Tris, pH 7.4, 1 mM CaCl2, 2.5 mM KCl, 2.5 mM MgSO4, 10 mM (+) D-glucose. Flp-in™-CHO (Invitrogen Cat n° R758-07) cells stably transfected with mGlyT1b cDNA.
# Glycine Uptake Inhibition Assay (mGlyT-1b)
# On day 1 mammalian cells, (Flp-in™-CHO), transfected with mGlyT-1b cDNA, were plated at the density of 40,000 cells/well in complete F-12 medium, without hygromycin in 96-well culture plates. On day 2, the medium was aspirated and the cells were washed twice with uptake buffer (UB). The cells were then incubated for 20 min at 22° C. with either (i) no potential competitor, (ii) 10 mM non-radioactive glycine, (iii) a concentration of a potential inhibitor. A range of concentrations of the potential inhibitor was used to generate data for calculating the concentration of inhibitor resulting in 50% of the effect (e.g. IC50, the concentration of the competitor inhibiting glycine uptake of 50%). A solution was then immediately added containing [^3H]-glycine 60 nM (11-16 Ci/mmol) and 25 μM non-radioactive glycine. The plates were incubated with gentle shaking and the reaction was stopped by aspiration of the mixture and washing (three times) with ice-cold UB. The cells were lysed with scintillation liquid, shaken 3 hours and the radioactivity in the cells was counted using a scintillation counter.
row,Structure (SMILES),IC50
1,"CN[C@@H](c1ccc(Cl)c(Cl)c1)[C@H](O)c1ccc(-c2cncc(F)c2)cc1 (racemic) [Example 39, rac-erythro-[2-(3,4-Dichloro-phenyl)-1-[4-(5-fluoro-pyridin-3-yl)-phenyl]-2-methylamino-ethanol hydrochloride]",0.208 µM
2,"N[C@@H](c1ccc(Cl)c(Cl)c1)[C@H](O)c1ccc(OC2CCOCC2)cc1 (racemic) [Example 40, rac-erythro-[2-Amino-2-(3,4-dichloro-phenyl)-1-[4-(tetrahydro-pyran-4-yloxy)-phenyl]-ethanol]",0.052 µM
3,"N[C@@H](c1ccc(Cl)c(Cl)c1)[C@H](O)c1ccc(OC2CCOC2)cc1 (mixture of isomers) [Example 42, rac-erythro-[rac-2-Amino-2-(3,4-dichloro-phenyl)-1-[4-(tetrahydro-furan-3-yloxy)-phenyl]-ethanol]",0.052 µM
4,"CC(CO)(CCl)COc1ccc([C@@H](O)[C@@H](N)c2ccc(Cl)c(Cl)c2)cc1 (mixture of isomers) [Example 43, rac-erythro-[2-Amino-2-(3,4-dichloro-phenyl)-1-hydroxy-ethyl]-phenoxy]-2-chloromethyl-2-methyl-propan-1-ol hydrochloride]",0.053 µM
5,"N[C@@H](c1ccc(Cl)c(Cl)c1)[C@H](O)c1ccc(OC2CCS(=O)(=O)CC2)cc1 (racemic) [Example 44, rac-erythro-[2-Amino-2-(3,4-dichloro-phenyl)-1-[4-(1,1-dioxo-hexahydro-1λ^6-thio-pyran-4-yloxy)-phenyl]-ethanol]",0.088 µM
6,"N[C@@H](c1ccc(Cl)c(Cl)c1)[C@H](O)c1ccc(OCC2CCOCC2)cc1 (racemic) [Example 45, rac-erythro-[2-Amino-2-(3,4-dichloro-phenyl)-1-[4-(tetrahydro-pyran-4-ylmethoxy)-phenyl]-ethanol]",0.147 µM
7,"CC(=O)N1CCC(Oc2ccc([C@@H](O)[C@@H](N)c3ccc(Cl)c(Cl)c3)cc2)CC1 (racemic) [Example 46, rac-erythro-[1-(4-[4-[2-Amino-2-(3,4-dichloro-phenyl)-1-hydroxy-ethyl]-phenoxy]-piperidin-1-yl)-ethanone]",0.262 µM
8,"N[C@@H](c1ccc(Cl)c(Cl)c1)[C@H](O)c1ccc(OCC(F)(F)F)cc1 (racemic) [Example 47, rac-erythro-[2-Amino-2-(3,4-dichloro-phenyl)-1-[4-(2,2,2-trifluoro-ethoxy)-phenyl]-ethanol]",0.266 µM
9,"N[C@@H](c1ccc(Cl)cc1)[C@H](O)c1ccc(OC2CCCC2)cc1 (racemic) [Example 48, rac-erythro-[2-Amino-2-(4-chloro-phenyl)-1-(4-cyclopentyloxy-phenyl)-ethanol hydrochloride]",0.433 µM
10,"N[C@@H](c1ccc(Cl)c(Cl)c1)[C@H](O)c1ccc(OCC2CC2)cc1 (racemic) [Example 49, rac-erythro-[2-Amino-1-(4-cyclopropylmethoxy-phenyl)-2-(3,4-dichloro-phenyl)-ethanol]",0.533 µM
11,"CC(C)COc1ccc([C@@H](O)[C@@H](N)c2ccc(Cl)c(Cl)c2)cc1 (racemic) [Example 50, rac-erythro-2-Amino-2-(3,4-dichloro-phenyl)-1-(4-isobutoxy-phenyl)-ethanol]",0.549 µM
12,"CCC(C)Oc1ccc([C@@H](O)[C@@H](N)c2ccc(Cl)c(Cl)c2)cc1 (mixture of isomers) [Example 51, rac-erythro-2-Amino-1-(4-sec-butoxy-phenyl)-2-(3,4-dichloro-phenyl)-ethanol]",0.72 µM
13,"N[C@@H](c1ccc(Cl)c(Cl)c1)[C@H](O)c1ccc(OCCC(F)(F)F)cc1 (racemic) [Example 52, rac-erythro-2-Amino-2-(3,4-dichloro-phenyl)-1-[4-(3,3,3-trifluoro-propoxy)-phenyl]-ethanol]",0.772 µM
14,"N[C@@H](c1ccc(Cl)cc1)[C@H](O)c1ccc(OC2CCCCC2)cc1 (racemic) [Example 53, rac-erythro-2-Amino-2-(4-chloro-phenyl)-1-(4-cyclohexyloxy-phenyl)-ethanol]",1.03 µM
15,"Cc1ccc([C@H](N)[C@H](O)c2ccc(OC3CCOCC3)cc2)cc1Cl (racemic) [Example 54, rac-erythro-[2-Amino-2-(3-chloro-4-methyl-phenyl)-1-[4-(tetrahydro-pyran-4-yloxy)-phenyl]-ethanol]",0.104 µM
16,"Cc1ccc([C@H](N)[C@H](O)c2ccc(OC3CCOC3)cc2)cc1Cl (mixture of isomers) [Example 55, rac-erythro-[2-Amino-2-(3-chloro-4-methyl-phenyl)-1-[4-(tetrahydro-furan-3-yloxy)-phenyl]-ethanol]",0.131 µM
17,"Cc1ccc([C@H](N)[C@H](O)c2ccc(OC(C)C)cc2)cc1Cl (racemic) [Example 56, rac-erythro-2-Amino-2-(3-chloro-4-methylphenyl)-1-(4-isopropoxy-phenyl)-ethanol]",0.381 µM
18,"Cc1ccc([C@H](N)[C@H](O)c2ccc(OC3CCOCC3)cc2)cc1F (racemic) [Example 57, rac-erythro-2-Amino-2-(3-fluoro-4-methyl-phenyl)-1-[4-(tetrahydro-pyran-4-yloxy)-phenyl]-ethanol]",0.202 µM
19,"N[C@@H](c1ccc(Cl)cc1)[C@H](O)c1ccc(OC(CF)CF)cc1 (racemic) [Example 58, rac-erythro-2-Amino-2-(4-chloro-phenyl)-1-[4-(2-fluoro-1-fluoromethyl-ethoxy)-phenyl]-ethanol]",0.478 µM
20,"N[C@@H](c1ccc(Cl)cc1)[C@H](O)c1ccc(OC2CCOCC2)cc1 (racemic) [Example 59, rac-erythro-2-Amino-2-(4-chloro-phenyl)-1-[4-(tetrahydro-pyran-4-yloxy)-phenyl]-ethanol]",0.054 µM
21,"COCc1cccc(-c2ccc([C@@H](O)[C@@H](N)c3ccc(Cl)cc3)cc2)c1 (racemic) [Example 60, rac-erythro-2-Amino-2-(4-chloro-phenyl)-1-(3′-methoxymethyl-biphenyl-4-yl)-ethanol hydrochloride]",0.261 µM
22,"N[C@@H](c1ccc(Cl)cc1)[C@H](O)c1ccc(-c2ccncc2)cc1 (racemic) [Example 61, rac-erythro-2-Amino-2-(4-chloro-phenyl)-1-(4-pyridin-4-yl-phenyl)-ethanol]",0.06 µM
23,"CS(=O)(=O)c1cccc(-c2ccc([C@@H](O)[C@@H](N)c3ccc(Cl)cc3)cc2)c1 (racemic) [Example 62, rac-erythro-2-Amino-2-(4-chloro-phenyl)-1-(3′-methanesulfonyl-biphenyl-4-yl)-ethanol]",0.068 µM
24,"N[C@@H](c1ccc(Cl)cc1)[C@H](O)c1ccc(-c2cccnc2)cc1 (racemic) [Example 63, rac-erythro-2-Amino-2-(4-chloro-phenyl)-1-(4-pyridin-3-yl-phenyl)-ethanol hydrochloride]",0.09 µM
25,"COc1cncc(-c2ccc([C@@H](O)[C@@H](N)c3ccc(Cl)cc3)cc2)c1 (racemic) [Example 64, rac-erythro-2-Amino-2-(4-chloro-phenyl)-1-[4-(5-methoxy-pyridin-3-yl)-phenyl]-ethanol]",0.138 µM
26,"N[C@@H](c1ccc(Cl)cc1)[C@H](O)c1ccc(-c2cncnc2)cc1 (racemic) [Example 65, rac-erythro-2-Amino-2-(4-chloro-phenyl)-1-(4-pyrimidin-5-yl-phenyl)-ethanol]",0.139 µM
27,"N[C@@H](c1ccc(Cl)cc1)[C@H](O)c1ccc(-c2cncc(F)c2)cc1 (racemic) [Example 66, rac-erythro-2-Amino-2-(4-chloro-phenyl)-1-[4-(5-fluoro-pyridin-3-yl)-phenyl]-ethanol]",0.152 µM
